Results on 13 molecules are retold here after ChEMBL document CHEMBL1157872, “Theoretical models of pentamidine analogs activity based on their DNA minor groove complexes” (Eur J Med Chem, 2010).

In assay [1] the test system is Nucleic Acid. Put plainly: Binding affinity to d(CGCGATATCGCG)2 dodecamer assessed as change in melting temperature. In kind it is nucleic-acid assay.
Assay [2] deals with Nucleic Acid.

On to `N=C(N)c1ccc(NCCNCCNc2ccc(C(=N)N)cc2)cc1`, for which the ΔTm (in general, the change in melting temperature against a reference sample) in assay [1] worked out at 5.48 °C; in assay [2] it was 5.84 °C. For `CN(CCCCCN(C)c1ccc(C(=N)N)cc1)c1ccc(C(=N)N)cc1`, the ΔTm in assay [1] is 1.1 °C; in assay [2] it was 1.17 °C. In the case of `N=C(N)c1ccc(-c2ccc(-c3ccc(C(=N)N)cc3)o2)cc1`, the ΔTm in assay [2] turned out to be 11.7 °C.

With `CCN1CCN=C1c1ccc(-c2ccc(-c3ccc(C4=NCCN4CC)cc3)o2)cc1`, in assay [2], the ΔTm was 1.9 °C.

On to `c1cc(-c2ccc(-c3ccc(C4=NCCN4)cc3)o2)ccc1C1=NCCN1`, for which, in assay [2], the ΔTm was found to be 11.4 °C. As to `N=C(N)c1ccc(/N=N/Nc2ccc(C(=N)N)cc2)cc1`, in assay [1], the shift in melting temperature (ΔTm) was 11.9 °C. For `N=C(N)c1ccc(OCCOCCOc2ccc(C(=N)N)cc2)cc1`, the ΔTm in assay [1] came out at 4.2 °C; in assay [2], 2.92 °C. On to `N=C(N)c1ccc(OCCCCCOc2ccc(C(=N)N)cc2)cc1`, for which the thermal shift (ΔTm) in assay [1] is 6.58 °C; in assay [2], 4.65 °C. As for `COc1cc(C(=N)N)cc(OC)c1OCCCCCOc1c(OC)cc(C(=N)N)cc1OC`, the ΔTm in assay [1] is 2.55 °C; in assay [2] it was 2.35 °C. Turning to `N=C(NC1CCCCC1)c1ccc(OCCOCCOc2ccc(C(=N)NC3CCCCC3)cc2)cc1`, the shift in melting temperature (ΔTm) in assay [1] is 4.3 °C; in assay [2] it was 5.08 °C.

With `Cn1cc(NC(=O)c2cc(NC(=O)CNC(=N)N)cn2C)cc1C(=O)NCCC(=N)N`, in assay [2], the thermal shift (ΔTm) is 31 °C. `CCCCNC(=N)c1ccc(OCCOCCOc2ccc(C(=N)NCCCC)cc2)cc1`: the shift in melting temperature (ΔTm) in assay [1] was determined as 3.3 °C; in assay [2], 3.84 °C. In the case of `CCCNC(=N)c1ccc(-c2ccc(-c3ccc(C(=N)NCCC)cc3)o2)cc1`, in assay [2], the ΔTm is 13 °C.
